{"source": "BindingDB's records for doi:10.1046/j.1471-4159.2000.0750413.x", "about": "(Oregon State University, 2000)", "data": [{"biological_target": "Cannabinoid receptor 1 (Taricha granulosa, UniProt Q9PUI7)", "sequence (Q9PUI7 whole entry)": "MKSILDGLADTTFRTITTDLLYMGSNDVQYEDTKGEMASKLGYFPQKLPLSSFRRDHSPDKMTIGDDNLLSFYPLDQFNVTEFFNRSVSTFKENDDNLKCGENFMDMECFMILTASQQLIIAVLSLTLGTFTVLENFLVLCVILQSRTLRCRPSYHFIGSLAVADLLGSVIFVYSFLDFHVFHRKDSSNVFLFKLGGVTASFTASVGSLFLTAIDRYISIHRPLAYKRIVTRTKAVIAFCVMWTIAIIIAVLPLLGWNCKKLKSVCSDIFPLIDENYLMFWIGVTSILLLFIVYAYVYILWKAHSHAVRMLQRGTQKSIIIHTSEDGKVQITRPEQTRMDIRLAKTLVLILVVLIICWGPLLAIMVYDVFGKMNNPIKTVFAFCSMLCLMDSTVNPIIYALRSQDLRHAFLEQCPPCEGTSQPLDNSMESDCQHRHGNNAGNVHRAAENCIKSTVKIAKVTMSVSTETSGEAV", "units": {"Ki": "nM"}, "values": [{"smiles": "CC(=O)Oc1cc(OC(C)CCCc2ccccc2)cc2c1C1CC(O)CCC1C(C)N2", "note": "(centres undefined) [NSC_107822]", "Ki": 13}, {"smiles": "Cc1c(C(=O)c2cccc3ccccc23)c2cccc3c2n1[C@H](CN1CCOCC1)CO3", "note": "[WIN55212-2]", "Ki": 25.7}, {"smiles": "CCCCCCC(C)(C)c1ccc([C@H]2C[C@@H](O)CC[C@@H]2CCCO)c(O)c1", "note": "[CP-56667 [(+)-AC],XV]", "Ki": 3.8}, {"smiles": "CCCCC/C=C\\C/C=C\\C/C=C\\C/C=C\\CCCCCC(=O)NCCO", "Ki": 2400}]}]}
